Source: patent US6060077A, “Unit galenical formulation for local hormonotherapy of vaginal dryness” (priority 1995, dated 2000)
Entries after “also recorded” stand apart in the source; their conditions may differ.

Legend:
[1] = tested on: vaginal mucous membrane / endometrium; conditions: 25 μg of 17β-estradiol per vaginal tablet, cited from earlier work
[2] = tested on: vulvo-vaginal mucous membrane; conditions: in vivo; cited from earlier work
[3] = tested on: receptors with high estradiol affinity in the vaginal epithelium; conditions: cited from earlier work; for affinity for vaginal epithelium receptors (decreasing order): female
[4] = plasma estrone after vaginal administration of 17β-estradiol; assay type: in vivo, human (patients)
Procedure: In all cases, the estrone concentrations never exceeded 30 pg/ml.
(§1) General conclusion: After a single vaginal administration of a soft capsule with 2.5 μg, 5 μg and 10 μg doses of 17β-estradiol, clinical tolerance was excellent for the group of six subjects included in the trial. Biological tolerance was also excellent.

[5] = tested on: vaginal estrogenic receptors; conditions: cited from earlier work; for agonist/antagonist properties: estrogenic receptors; for effect on endogenous estradiol: in the presence of endogenous estrogen
[6] = plasma estradiol after vaginal administration (pharmacokinetic analysis); assay type: in vivo, human (patients)
Procedure: Pharmacokinetic analysis: From a pharmacokinetic viewpoint, the plasmic estradiol concentrations remained unquantifiable in the group of subjects after administration of low doses (2.5 μg and 5 μg) and in half of the subjects at a high dose (10 μg).
as §1

[7] = 10 μg, micronized free form, vaginal

SMILES	cytological, histological and clinical improvement in the vaginal mucous membrane ([1]; daily)	endometrial proliferation ([1]; daily)	systemic passage of 17β-estradiol ([1]; indicated by endometrial proliferation)	local blood flow [2]	quantity of vaginal secretions [2]	transvaginal potential difference [2]	trophic effect in the vulvo-vaginal mucous membrane [2]	vaginal pH [2]	affinity for vaginal estrogenic receptors ([3]; in words)	affinity for vaginal epithelium receptors (decreasing order) [3]	plasmic estrone amounts after vs before treatment ([4]; capsule with 10 μg dose of 17β-estradiol, the other subjects)	estrone concentrations after vs before treatment ([4]; in general, after 17β-estradiol 2.5 μg, 5 μg and 10 μg, soft capsule)	proportionality between estrone Cmax or SSC and the administered dose ([4]; in vivo)	agonist/antagonist properties [5]	effect on endogenous estradiol [5]	vaginal absorption of estradiol from soft capsules ([6]; 2.5 μg to 10 μg doses of 17β-estradiol)	systemic passage [6, 7]	time of plasmic peak after administration [6, 7]	vaginal resorption of estradiol ([6]; capsules with 2.5 μg and 5 μg doses of 17β-estradiol)	intrinsic activity relative to 17β-estradiol ([5]; compared with 17β-estradiol)
C[C@]12CC[C@@H]3c4ccc(O)cc4CC[C@H]3[C@@H]1CC[C@@H]2O [17β-estradiol]	desired cytological, histological and clinical improvement	endometrial proliferation was noted in certain patients	systemic passage	increase	increase	increase the transvaginal potential difference	recognized and has been widely described	reduce the vaginal pH	high affinity	17β-estradiol>estriol>estrone	comparable with the amounts measured before treatment	of the same order of magnitude as those measured before treatment	no proportionality	physiological estrogenic agonist; also recorded: pure agonist; also recorded: complete agonist	adding effects in the presence of endogenous estrogen	substantially zero	only slight systemic passage is observed	about one	zero	
C[C@]12CC[C@@H]3c4ccc(O)cc4CC[C@H]3[C@@H]1C[C@@H](O)[C@@H]2O [estriol]										17β-estradiol>estriol>estrone				partially agonist properties and even antagonist properties	antagonistic effect on endogenous estradiol					less active
C[C@]12CC[C@@H]3c4ccc(O)cc4CC[C@H]3[C@@H]1CCC2=O [estrone]										17β-estradiol>estriol>estrone										
